Measured values reported in patent publication US8828974B2, “Substituted propane phosphinic acid derivatives” (Aventis Pharmaceuticals Inc., priority 2004, dated 2014).

Tests used:
Male Wistar rats = experiment: Chronic Mild Stress Model (CMS), sucrose consumption; assay type: in vivo, rat; conditions: 3 and 30 mg/kg orally, daily for five weeks; imipramine 10 mg/kg ip
Protocol: The following CMS study is performed using the parent compound 1 (hereafter “compound 1”) in comparison to known anti-depressant compound imipramine.
Male Wistar rats are brought into the laboratory two months before the start of the experiment at which time they weighed approximately 300 grams. Except as described below, the animals are singly housed, with food and water freely available, and maintained on a 12 hour light/dark cycle (lights on at 8 AM) at a temperature of about 22° C.
The animals are first trained to consume a 1% sucrose solution; training consists of eight 1 hour baseline tests in which sucrose is presented, in the home cage, following 14 hours food and water deprivation; intake is measured by weighing pre-weighed bottles containing the sucrose solution at the end of the test. Subsequently, sucrose consumption is monitored, under similar conditions, at weekly intervals throughout the whole experiment.
On the basis of their sucrose intakes in the final baseline test, the animals are divided into two matched groups. One group of animals is subjected to a chronic mild stress procedure for a period of 9 consecutive weeks. […]
Results are analyzed by multiple analysis of variance, followed by Fisher's LSD test for post hoc comparisons of means.

[1] = Relative bioavailability of parent compound 1 in plasma and brain after oral gavage in mice (Example 39); assay type: in vivo, Male CD1 mice; conditions: mouse brain samples 2, 4 and 7 hrs post-dose, LC/MS/MS
Protocol: Animals: Male CD1 mice (Charles River) weighing about 25 g—with free access to food and water.
Dose Groups: The compounds of this invention were administered to the test animals at a dose, which is molar equivalent to 10 mg/kg of the parent compound 1, ((R)-3-amino-2-hydroxy-propyl)-cyclohexylmethyl-phosphinic acid. Each of the test compounds was formulated at this dose level to yield a dose volume of 10 mL/kg and administered by oral gavage to a group of three mice per time point in each study group.
Formulations: The compounds of this invention were dissolved in vehicle of 0.2% Tween 80 and 0.5% methylcellulose (MC) at a concentration of about 1 mg/mL.
Samples: The blood samples (for plasma) were collected at the following time points: 5, 15 30 and 45 min […]; and 1, 2, 3, 4, 5, and 7 hrs post-dose. Brains were collected at 2, 4 and 7 hrs post-dose
Blood Handling: The blood samples were added to tubes containing 20 μL of a stock 10 mg/ml solution of sodium fluoride. The blood tubes were then stored in a refrigerator at approximately about 4° C. The volume of blood in each of these samples was about 0.4 mL. The samples were then centrifuged in a refrigerated centrifuge. […]
Bioanalysis: All plasma and brain samples were then analyzed for concentrations of the test compound as well as the parent compound 1, ((R)-3-amino-2-hydroxy-propyl)-cyclohexylmethyl-phosphinic acid by LC/MS/MS. […]

## NC[C@@H](O)CP(=O)(O)CC1CCCCC1 [compound 1, ((R)-3-amino-2-hydroxy-propyl)-cyclohexylmethyl-phosphinic acid]
Male Wistar rats
  activity in CMS (sucrose intake) compared with imipramine: equal to that of imipramine
[1]
  concentration of the parent compound 1 in brain: proportional to the concentration of the parent compound in plasma
